From ChEMBL document CHEMBL1201862, “PubChem BioAssay data set” (2004)
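Briefly, cells in 96-well plates were exposed to five compound concentrations for 48 h, and endpoints were estimated by linear interpolation. Here, GI50 denotes the concentration required for 50% inhibition of growth.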 Activity calls are given as the source filed them. No stated cut-off is given here; in the data, active = GI50 up to about 1.1 µM and inactive = higher.

Tests used:
Assay in all cases: NCI tumour cell line growth inhibition, 48 h
A498 = tested on: A498
A549 = tested on: A549
BT-549 = tested on: BT-549
CAKI-1 = tested on: CAKI-1
HCT-15 = tested on: HCT-15
HOP-62 = tested on: HOP-62
HT-29 = tested on: HT-29
IGROV-1 = tested on: IGROV-1
KM12 = tested on: KM12
M14 = tested on: M14
MCF7 = tested on: MCF7
OVCAR-4 = tested on: OVCAR-4
RXF 393 = tested on: RXF 393
SF-539 = tested on: SF-539
SR = tested on: SR
TK-10 = tested on: TK-10
NCI-H226 = tested on: NCI-H226

| Structure (SMILES) | GI50 (A498) | GI50 (A549) | GI50 (BT-549) | GI50 (CAKI-1) | GI50 (HCT-15) | GI50 (HOP-62) | GI50 (HT-29) | GI50 (IGROV-1) | GI50 (KM12) | GI50 (M14) | GI50 (MCF7) | GI50 (OVCAR-4) | GI50 (RXF 393) | GI50 (SF-539) | GI50 (SR) | GI50 (TK-10) | GI50 (NCI-H226) |
| --- | --- | --- | --- | --- | --- | --- | --- | --- | --- | --- | --- | --- | --- | --- | --- | --- | --- |
| Cc1ccc([S+]([O-])c2sccc2C=O)cc1 (stereo unspecified) | > 100 µM (inactive) | > 100 µM (inactive) | 25 µM (inactive) | > 100 µM (inactive) | 27.7 µM | 31.3 µM (inactive) | 19.8 µM (inactive) | 22.6 µM (inactive) | 27.7 µM (inactive) | 20 µM (inactive) | 21.4 µM (inactive) | 29 µM (inactive) | 56.9 µM (inactive) | 21 µM (inactive) | 31.8 µM (inactive) | > 100 µM (inactive) | – |
| C[n+]1cn(-c2ccc([N+](=O)[O-])cn2)c2ccccc21 | > 100 µM (inactive) | > 100 µM (inactive) | > 100 µM (inactive) | > 100 µM (inactive) | > 100 µM | > 100 µM (inactive) | > 100 µM (inactive) | > 100 µM (inactive) | > 100 µM (inactive) | > 100 µM (inactive) | > 100 µM (inactive) | > 100 µM (inactive) | > 100 µM (inactive) | > 100 µM (inactive) | > 100 µM (inactive) | > 100 µM (inactive) | > 100 µM (inactive) |
| CCCCCOc1ccc(NC2=C(Cl)C(=O)c3c(O)ccc(O)c3C2=O)cc1 | > 10 µM (inactive) | > 10 µM (inactive) | 4.42 µM (inactive) | > 10 µM (inactive) | 2.02 µM | 5.85 µM (inactive) | 4.75 µM (inactive) | > 10 µM (inactive) | 4.14 µM (inactive) | 3.03 µM (inactive) | 1.33 µM (inactive) | 5.12 µM (inactive) | 4.71 µM (inactive) | 6.52 µM (inactive) | 2.36 µM (inactive) | 5.97 µM (inactive) | > 10 µM (inactive) |
| C=C(C[C@@H](O)[C@H](C)NC(=O)OCc1ccccc1)C(=O)OC(C)(C)C | > 100 µM (inactive) | > 100 µM (inactive) | 95.9 µM (inactive) | 53.6 µM (inactive) | > 100 µM | > 100 µM (inactive) | > 100 µM (inactive) | > 100 µM (inactive) | > 100 µM (inactive) | > 100 µM (inactive) | 61.7 µM (inactive) | 47.5 µM (inactive) | – | 50 µM (inactive) | 29.6 µM (inactive) | > 100 µM (inactive) | > 100 µM (inactive) |
| Nc1nc(Cl)c(N)c(NC23CC4CC(CC(C4)C2)C3)n1 | 2.88 µM (inactive) | 2.13 µM (inactive) | 2.25 µM (inactive) | 1.93 µM (inactive) | 1.73 µM | 1.87 µM (inactive) | 1.79 µM (inactive) | 3.85 µM (inactive) | 1.73 µM (inactive) | 1.36 µM (inactive) | 1.68 µM (inactive) | 1.85 µM (inactive) | 1.61 µM (inactive) | 2.16 µM (inactive) | 2.56 µM (inactive) | 2.38 µM (inactive) | 1.92 µM (inactive) |
| O=C(/C=C/c1ccc(-c2ccccc2)cc1)NCc1ccc(C(=O)NCCc2c[nH]c3ccccc23)cc1 | 32.8 µM (inactive) | 19.4 µM (inactive) | 37.2 µM (inactive) | 16.3 µM (inactive) | > 100 µM | 9.14 µM (inactive) | 11.5 µM (inactive) | 11.4 µM (inactive) | 31 µM (inactive) | 80.9 µM (inactive) | 89.9 µM (inactive) | 14.8 µM (inactive) | 19.8 µM (inactive) | 43.5 µM (inactive) | 21 µM (inactive) | 26.2 µM (inactive) | 24.4 µM (inactive) |
| CC(=O)C1(Cc2cccc3ccccc23)S(=O)(=O)OCCOS1(=O)=O | 19 µM (inactive) | – | 16.9 µM (inactive) | 15.9 µM (inactive) | 19.2 µM | 20.9 µM (inactive) | 17.5 µM (inactive) | 4.69 µM (inactive) | 15.4 µM (inactive) | 23.4 µM (inactive) | 20.8 µM (inactive) | 21.7 µM (inactive) | 12.7 µM (inactive) | 17.9 µM (inactive) | 18.3 µM (inactive) | 17.3 µM (inactive) | 16.8 µM (inactive) |
| CO/C(=C/C(=O)C(Cl)(Cl)Cl)CC/C(=C\C(=O)C(Cl)(Cl)Cl)OC | 35.3 µM (inactive) | 47.4 µM (inactive) | 27.9 µM (inactive) | 24.9 µM (inactive) | 22.5 µM | 20.8 µM (inactive) | 25 µM (inactive) | 16.3 µM (inactive) | 27.7 µM (inactive) | 28.2 µM (inactive) | 24.2 µM (inactive) | 19.1 µM (inactive) | 17.5 µM (inactive) | 23.6 µM (inactive) | 18.6 µM (inactive) | 30.8 µM (inactive) | – |
| CC(=O)NNc1nc(C)c(C(/C=C/c2ccc([N+](=O)[O-])cc2)=N/NC(N)=O)s1 | > 100 µM (inactive) | > 100 µM (inactive) | > 100 µM (inactive) | > 100 µM (inactive) | > 100 µM | > 100 µM (inactive) | > 100 µM (inactive) | 44.8 µM (inactive) | > 100 µM (inactive) | > 100 µM (inactive) | > 100 µM (inactive) | > 100 µM (inactive) | > 100 µM (inactive) | > 100 µM (inactive) | > 100 µM (inactive) | > 100 µM (inactive) | > 100 µM (inactive) |
| Nc1nc(Cl)cc(NC2(CO)CCC2)n1 | > 100 µM (inactive) | > 100 µM (inactive) | > 100 µM (inactive) | 89.5 µM (inactive) | > 100 µM | > 100 µM (inactive) | > 100 µM (inactive) | > 100 µM (inactive) | > 100 µM (inactive) | – | > 100 µM (inactive) | > 100 µM (inactive) | > 100 µM (inactive) | > 100 µM (inactive) | > 100 µM (inactive) | > 100 µM (inactive) | > 100 µM (inactive) |
| CC(=O)OC[C@@]12Cc3ccc(C)c(O)c3[C@]1(C)[C@@H](OC(C)=O)[C@]1(O)[C@H]([C@@H](OC(=O)c3ccccc3)[C@@H](C)[C@H]1OC(C)=O)[C@H]2OC(C)=O | > 50 µM (inactive) | – | > 50 µM (inactive) | > 50 µM (inactive) | > 50 µM | > 50 µM (inactive) | – | > 50 µM (inactive) | > 50 µM (inactive) | > 50 µM (inactive) | > 50 µM (inactive) | > 50 µM (inactive) | > 50 µM (inactive) | > 50 µM (inactive) | > 50 µM (inactive) | > 50 µM (inactive) | > 50 µM (inactive) |
| CC(=O)Nc1c(S(=O)(=O)c2ccccc2)c(C)c(C)n1CCN(C)C | > 100 µM (inactive) | > 100 µM (inactive) | > 100 µM (inactive) | > 100 µM (inactive) | > 100 µM | – | > 100 µM (inactive) | > 100 µM (inactive) | > 100 µM (inactive) | 70.3 µM (inactive) | > 100 µM (inactive) | > 100 µM (inactive) | > 100 µM (inactive) | > 100 µM (inactive) | > 100 µM (inactive) | > 100 µM (inactive) | > 100 µM (inactive) |
| O=C(NNC(=O)c1ccncc1)c1ccncc1 | > 100 µM (inactive) | > 100 µM (inactive) | > 100 µM (inactive) | > 100 µM (inactive) | > 100 µM | > 100 µM (inactive) | > 100 µM (inactive) | > 100 µM (inactive) | > 100 µM (inactive) | > 100 µM (inactive) | > 100 µM (inactive) | > 100 µM (inactive) | > 100 µM (inactive) | – | > 100 µM (inactive) | > 100 µM (inactive) | – |
| N=c1oc2ccc(Cl)cc2cc1C(=O)NC1CCCCC1 | 63.8 µM (inactive) | 71.3 µM (inactive) | > 100 µM (inactive) | > 100 µM (inactive) | 37.8 µM | > 100 µM (inactive) | > 100 µM (inactive) | 41 µM (inactive) | 47.6 µM (inactive) | > 100 µM (inactive) | 58.6 µM (inactive) | > 100 µM (inactive) | > 100 µM (inactive) | 81.8 µM (inactive) | 51.5 µM (inactive) | – | 90.4 µM (inactive) |
| COC1C(=O)CCC2(CO2)C1(O)C1(C)OC1CC=C(C)C (stereo unspecified) | 26.3 µM (inactive) | 10.6 µM (inactive) | 50.6 µM (inactive) | 38.1 µM (inactive) | 19 µM | 14.7 µM (inactive) | 23.1 µM (inactive) | 16.9 µM (inactive) | 16.2 µM (inactive) | 11.1 µM (inactive) | 11.8 µM (inactive) | > 100 µM (inactive) | 22.9 µM (inactive) | – | 13.9 µM (inactive) | 22.9 µM (inactive) | – |
| O=C(CNC(=O)OCc1ccccc1)NCCCCC(NC(=O)OCc1ccccc1)C(=O)NC(CCCCNC(=O)CNC(=O)OCc1ccccc1)C(=O)OCc1ccccc1 (stereo unspecified) | > 62.5 µM (inactive) | > 62.5 µM (inactive) | > 62.5 µM (inactive) | > 62.5 µM (inactive) | > 62.5 µM | > 62.5 µM (inactive) | > 62.5 µM (inactive) | > 62.5 µM (inactive) | – | > 62.5 µM (inactive) | > 62.5 µM (inactive) | > 62.5 µM (inactive) | – | – | > 62.5 µM (inactive) | > 62.5 µM (inactive) | > 62.5 µM (inactive) |
| C[C@@H]1S[C@H](c2c(Cl)cccc2Cl)N2Cc3ccccc3N=C12 | > 100 µM (inactive) | > 100 µM (inactive) | > 100 µM (inactive) | > 100 µM (inactive) | > 100 µM | > 100 µM (inactive) | – | > 100 µM (inactive) | 85.5 µM (inactive) | > 100 µM (inactive) | > 100 µM (inactive) | > 100 µM (inactive) | > 100 µM (inactive) | > 100 µM (inactive) | > 100 µM (inactive) | > 100 µM (inactive) | – |
